Columns and labels:
S. aureus = experiment: Time kill test (rapid germicidal activity) against S. aureus; assay type: cell-based, Staphylococcus aureus; details: 2% active aqueous solution
Procedure: (§1) a) Determination of Rapid Germicidal (Time Kill) Activity of Antibacterial Products. The activity of antibacterial compositions was measured by the time kill method, whereby the survival of challenged organisms exposed to an antibacterial test composition is determined as a function of time. In this test, a diluted aliquot of the composition is brought into contact with a known population of test bacteria for a specified time period at a specified temperature. The test composition is neutralized at the end of the time period, which arrests the antibacterial activity of the composition. The percent or, alternatively, log reduction from the original bacteria population is calculated. In general, the time kill method is known to those skilled in the art. The composition can be tested at any concentration from 0-100%. The choice of which concentration to use is at the discretion of the investigator, and suitable concentrations are readily determined by those skilled in the art. […] The test sample is placed in a sterile 250 ml beaker equipped with a magnetic stirring bar and the sample volume is brought to 100 ml, if needed, with sterile deionized water. All testing is performed in triplicate, the results are combined, and the average log reduction is reported. The choice of contact time period also is at the discretion of the investigator. Any contact time period can be chosen. […] The contact temperature also can be any temperature, typically room temperature, or about 25 degrees Celsius. The bacterial suspension, or test inoculum, is prepared by growing a bacterial culture on any appropriate solid media (e.g., agar). The bacterial population then is washed from the agar with sterile physiological saline and the population of the bacterial suspension is adjusted to about 10^8 colony forming units per ml (cfu/ml). The table below lists-the test bacterial cultures used in the following tests and includes the name of the bacteria, the ATCC (American Type Culture Collection) identification number, and the abbreviation for the name of the organism used hereafter. [table] The beaker containing the test composition is placed in a water bath (if constant temperature is desired), or placed on a magnetic stirrer (if ambient laboratory temperature is desired). The sample then is inoculated with 1.0 ml of the test bacteria suspension. The inoculum is stirred with the test composition for the predetermined contact time. […] Decimal dilutions to a countable range then are made. The dilutions can differ for different organisms. Plate selected dilutions in triplicate on TSA+ plates (TSA+ is Trypticase Soy Agar with Lecithin and Polysorbate 80). […] The control count (numbers control) is determined by conducting the procedure as described above with the exception that THT is used in place of the test composition. The plate counts are converted to cfu/ml for the numbers control and samples, respectively, by standard microbiological methods. The log reduction is calculated using the formula Log reduction=log10 (numbers control)−log10 (test sample survivors).

E. coli = experiment: Time kill test (rapid germicidal activity) against E. coli; assay type: cell-based, Escherichia coli; details: 2% active aqueous solution
Procedure: as §1

Lauramine oxide was tested, and the “log reduction after 30 seconds S. aureus” value (S. aureus; pH 4.93, 30 seconds) was 2.11 log, the “log reduction after 30 seconds S. aureus” value (S. aureus; pH 5.50, 30 seconds) was greater than 4.38 log and the “log reduction after 30 seconds S. aureus” value (S. aureus; pH 6.02, 30 seconds) was greater than 4.39 log. For the same substance, the “log reduction after 30 seconds S. aureus” value (S. aureus; pH 6.5, 30 seconds) was greater than 4.39 log, the “log reduction after 30 seconds S. aureus” value (S. aureus; pH 7.0, 30 seconds) was greater than 4.39 log and the “log reduction after 30 seconds S. aureus” value (S. aureus; pH 7.53, 30 seconds) was greater than 4.39 log. For the same substance, the “log reduction after 30 seconds S. aureus” value (S. aureus; pH 8.94, 30 seconds) was 4.33 log, the “log reduction after 30 seconds S. aureus” value (S. aureus; pH 10.14, 30 seconds) was 3.75 log and the “log reduction after 30 seconds E. coli” value (E. coli; pH 4.93, 30 seconds) was greater than 5.32 log. The “log reduction after 30 seconds E. coli” value (E. coli; pH 5.50, 30 seconds) was greater than 4.70 log, the “log reduction after 30 seconds E. coli” value (E. coli; pH 6.02, 30 seconds) was greater than 4.70 log and the “log reduction after 30 seconds E. coli” value (E. coli; pH 6.5, 30 seconds) was greater than 4.70 log. The “log reduction after 30 seconds E. coli” value (E. coli; pH 7.0, 30 seconds) was greater than 5.32 log, the “log reduction after 30 seconds E. coli” value (E. coli; pH 7.53, 30 seconds) was 0.88 log and the “log reduction after 30 seconds E. coli” value (E. coli; pH 8.94, 30 seconds) was 0.27 log. For the same substance, the “log reduction after 30 seconds E. coli” value (E. coli; pH 10.14, 30 seconds) was 0.11 log.

Reference: patent US6616922B2, “Antibacterial compositions” (The Dial Corporation, priority 2001, dated 2003)
